Laboratory results as given in patent US3940248A, “Method for inhibiting corrosion of metal” (Otsuka Kagaku Yakuhin Kabushiki Kaisha, priority 1972, dated 1976).

Legend:
[1] = in vivo; conditions: rat, po
Method: The LD50 test was conducted using male Wistar rats after 24 hours' fasting weighing 150 g, each 10 rats as a group.

[2] = system: male Wistar rats; conditions: sodium nitrite, as determined in rats; cited from earlier work

Compound | LD50 [1] [mg/kg] | LD50 [2] [mg/kg]
Cc1cc(O)c2nncn2n1 | ~3750 | 
O=NO [Sodium nitrite] |  | 85
